This series in a line: solubility of rod like amorphous particles compared to Form I. The conditions noted are these: qualitative statement, no method or figures given.

For `CC(C)CN(C[C@@H](OP(=O)(O)O)[C@H](Cc1ccccc1)NC(=O)O[C@H]1CCOC1)S(=O)(=O)c1ccc(N)cc1` [rod like amorphous particles, calcium (2R, 3S)-1-(4-amino-N-isobutyl-phenylsulfonamido)-4-phenyl-3-(((S)-tetrahydrofuran-3-yloxy)carbonylamino)butan-2-yl phosphate], the solubility entry is reported as “enhanced solubility compared to Form I”.

The record behind these values is patent publication US20110165202A1, “SOLID STATE FORMS OF FOSAMPRENAVIR CALCIUM SALT AND PROCESSES FOR PREPARATION THEREOF” (PLIVA HRVATSKA D.O.O., priority 2010, published 2011).
